For assay [1], the target named is T1, Dual specificity mitogen-activated protein kinase kinase 6 (Homo sapiens) (UniProt P52564).
T1 sequence (whole entry): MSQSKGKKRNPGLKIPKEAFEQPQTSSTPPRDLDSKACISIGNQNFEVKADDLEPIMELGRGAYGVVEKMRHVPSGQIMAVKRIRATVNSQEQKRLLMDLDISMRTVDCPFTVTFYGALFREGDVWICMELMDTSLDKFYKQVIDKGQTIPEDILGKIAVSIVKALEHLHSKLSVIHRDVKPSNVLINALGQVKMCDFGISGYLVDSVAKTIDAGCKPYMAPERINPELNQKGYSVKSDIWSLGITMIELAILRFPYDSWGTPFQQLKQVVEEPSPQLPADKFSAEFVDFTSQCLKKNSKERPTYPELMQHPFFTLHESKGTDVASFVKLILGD
The experiment in a line: Inhibition of MEK6 (unknown origin) assessed as residual activity at 1000 nM by KINOMEscan analysis relative to control.

In assay [2] the target is Cyclin-dependent kinase 4/cyclin D1 (Homo sapiens) (UniProt P11802+P24385). Nature of the assay: Inhibition of CDK4-cyclin D1 (unknown origin) assessed as residual activity at 1000 nM by KINOMEscan analysis relative to control. The class given is protein-complex assay.
For assay [3], the target named is Serine/threonine-protein kinase 10 (Homo sapiens) (UniProt O94804). The experiment in a line: Inhibition of LOK (unknown origin) assessed as residual activity at 1000 nM by KINOMEscan analysis relative to control.
In assay [4] the target is Serine/threonine-protein kinase PAK 4 (Homo sapiens) (UniProt O96013). Nature of the assay: Inhibition of PAK4 (unknown origin) assessed as residual activity at 1000 nM by KINOMEscan analysis relative to control.
For assay [5], the target named is Fibroblast growth factor receptor 3 (Homo sapiens) (UniProt P22607). The experiment in a line: Inhibition of FGFR3 (unknown origin) assessed as residual activity at 1000 nM by KINOMEscan analysis relative to control.
Assay [6] concerns Tyrosine-protein kinase ABL1 (Homo sapiens), P00519 [M351T]. Nature of the assay: Inhibition of phosphorylated ABL1 M351T mutant (unknown origin) assessed as residual activity at 1000 nM by KINOMEscan analysis relative to control.
The target of assay [7] is Protein-tyrosine kinase 6 (Homo sapiens) (UniProt Q13882). The experiment in a line: Inhibition of BRK (unknown origin) assessed as residual activity at 1000 nM by KINOMEscan analysis relative to control.
Assay [8] addresses Tyrosine-protein kinase HCK (Homo sapiens) (UniProt P08631). Nature of the assay: Inhibition of HCK (unknown origin) assessed as residual activity at 1000 nM by KINOMEscan analysis relative to control.
Assay [9] deals with T2, Cyclin-G-associated kinase (Homo sapiens) (UniProt O14976).
T2 sequence (whole entry): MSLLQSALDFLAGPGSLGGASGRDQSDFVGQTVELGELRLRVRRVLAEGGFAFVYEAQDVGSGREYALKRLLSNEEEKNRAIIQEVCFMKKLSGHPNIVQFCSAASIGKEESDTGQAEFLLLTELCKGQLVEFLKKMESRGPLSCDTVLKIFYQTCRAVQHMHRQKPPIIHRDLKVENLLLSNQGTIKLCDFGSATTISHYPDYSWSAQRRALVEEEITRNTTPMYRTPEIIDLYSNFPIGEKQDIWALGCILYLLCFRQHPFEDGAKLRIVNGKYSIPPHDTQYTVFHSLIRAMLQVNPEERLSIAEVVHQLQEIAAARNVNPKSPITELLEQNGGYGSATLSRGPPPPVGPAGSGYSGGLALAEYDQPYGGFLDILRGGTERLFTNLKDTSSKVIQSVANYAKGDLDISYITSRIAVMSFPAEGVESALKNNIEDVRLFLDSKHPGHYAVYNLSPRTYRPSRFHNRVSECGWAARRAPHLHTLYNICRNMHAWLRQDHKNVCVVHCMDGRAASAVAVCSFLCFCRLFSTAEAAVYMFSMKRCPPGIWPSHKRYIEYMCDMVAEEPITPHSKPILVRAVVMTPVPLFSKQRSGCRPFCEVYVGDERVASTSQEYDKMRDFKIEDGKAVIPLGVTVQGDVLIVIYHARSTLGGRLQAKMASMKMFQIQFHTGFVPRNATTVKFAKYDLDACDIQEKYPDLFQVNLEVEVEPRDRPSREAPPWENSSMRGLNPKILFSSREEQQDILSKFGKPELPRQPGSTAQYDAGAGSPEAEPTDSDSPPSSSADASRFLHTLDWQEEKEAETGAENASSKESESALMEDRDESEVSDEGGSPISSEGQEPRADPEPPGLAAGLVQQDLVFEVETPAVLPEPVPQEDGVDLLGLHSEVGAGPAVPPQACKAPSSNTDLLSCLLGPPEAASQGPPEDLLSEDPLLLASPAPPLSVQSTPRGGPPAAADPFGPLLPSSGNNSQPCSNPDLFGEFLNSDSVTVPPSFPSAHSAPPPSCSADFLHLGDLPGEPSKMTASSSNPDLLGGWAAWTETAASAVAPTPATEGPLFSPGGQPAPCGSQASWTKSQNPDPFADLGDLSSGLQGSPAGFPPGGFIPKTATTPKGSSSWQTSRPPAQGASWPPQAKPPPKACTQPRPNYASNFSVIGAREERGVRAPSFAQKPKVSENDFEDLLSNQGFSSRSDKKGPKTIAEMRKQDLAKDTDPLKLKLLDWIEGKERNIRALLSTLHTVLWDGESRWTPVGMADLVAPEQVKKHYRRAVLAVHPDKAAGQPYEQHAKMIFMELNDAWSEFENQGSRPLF
The experiment in a line: Inhibition of GAK (unknown origin) assessed as residual activity at 1000 nM by KINOMEscan analysis relative to control.

The target of assay [10] is Cyclin-dependent kinase 16 (Homo sapiens) (UniProt Q00536). Nature of the assay: Inhibition of PCTK1 (unknown origin) assessed as residual activity at 1000 nM by KINOMEscan analysis relative to control.
In assay [11] the target is Phosphatidylinositol 4-phosphate 5-kinase type-1 alpha (Homo sapiens) (UniProt Q99755). Nature of the assay: Inhibition of PIP5K1A (unknown origin) assessed as residual activity at 1000 nM by KINOMEscan analysis relative to control.
The target in assay [12] is Serine/threonine-protein kinase pim-3 (Homo sapiens) (UniProt Q86V86). Nature of the assay: Inhibition of PIM3 (unknown origin) assessed as residual activity at 1000 nM by KINOMEscan analysis relative to control.

This note sets out measurements from ChEMBL document CHEMBL5678818, “Discovery of potent SOS1 inhibitors that block RAS activation via disruption of the RAS-SOS1 interaction” (Proc Natl Acad Sci U S A, 2019).

Sequence of Phosphatidylinositol 4-phosphate 5-kinase type-1 alpha (Homo sapiens) (Q99755 whole entry): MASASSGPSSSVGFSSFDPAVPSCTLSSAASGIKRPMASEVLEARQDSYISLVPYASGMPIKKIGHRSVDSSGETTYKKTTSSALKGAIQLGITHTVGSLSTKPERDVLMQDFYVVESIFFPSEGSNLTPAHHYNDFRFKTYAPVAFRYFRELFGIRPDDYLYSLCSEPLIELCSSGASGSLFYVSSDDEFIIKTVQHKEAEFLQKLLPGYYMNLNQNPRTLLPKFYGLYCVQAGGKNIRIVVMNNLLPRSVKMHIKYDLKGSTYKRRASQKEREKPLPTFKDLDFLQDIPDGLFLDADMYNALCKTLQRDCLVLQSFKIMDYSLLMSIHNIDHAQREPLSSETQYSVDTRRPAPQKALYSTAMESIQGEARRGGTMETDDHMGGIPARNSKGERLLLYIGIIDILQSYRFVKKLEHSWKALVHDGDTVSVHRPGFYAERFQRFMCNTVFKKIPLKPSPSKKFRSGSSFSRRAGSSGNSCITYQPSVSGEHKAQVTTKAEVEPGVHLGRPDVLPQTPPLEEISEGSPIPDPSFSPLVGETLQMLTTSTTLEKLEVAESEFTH
Sequence of Tyrosine-protein kinase HCK (Homo sapiens) (P08631 2-526 limits assumed): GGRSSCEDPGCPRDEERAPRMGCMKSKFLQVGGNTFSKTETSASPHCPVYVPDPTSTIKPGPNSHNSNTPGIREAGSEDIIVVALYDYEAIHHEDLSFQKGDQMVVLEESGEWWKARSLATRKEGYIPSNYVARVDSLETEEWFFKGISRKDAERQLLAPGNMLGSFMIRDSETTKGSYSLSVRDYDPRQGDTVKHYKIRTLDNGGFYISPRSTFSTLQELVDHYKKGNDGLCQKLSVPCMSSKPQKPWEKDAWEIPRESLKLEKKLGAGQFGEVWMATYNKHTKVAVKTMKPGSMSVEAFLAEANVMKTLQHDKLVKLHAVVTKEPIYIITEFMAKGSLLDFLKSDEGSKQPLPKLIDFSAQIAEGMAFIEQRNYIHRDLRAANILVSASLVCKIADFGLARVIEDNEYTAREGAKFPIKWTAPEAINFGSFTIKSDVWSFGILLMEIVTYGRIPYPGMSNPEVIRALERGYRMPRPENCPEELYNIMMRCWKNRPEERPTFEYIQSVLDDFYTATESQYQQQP
Sequence of Serine/threonine-protein kinase 10 (Homo sapiens) (O94804 whole entry, looked up): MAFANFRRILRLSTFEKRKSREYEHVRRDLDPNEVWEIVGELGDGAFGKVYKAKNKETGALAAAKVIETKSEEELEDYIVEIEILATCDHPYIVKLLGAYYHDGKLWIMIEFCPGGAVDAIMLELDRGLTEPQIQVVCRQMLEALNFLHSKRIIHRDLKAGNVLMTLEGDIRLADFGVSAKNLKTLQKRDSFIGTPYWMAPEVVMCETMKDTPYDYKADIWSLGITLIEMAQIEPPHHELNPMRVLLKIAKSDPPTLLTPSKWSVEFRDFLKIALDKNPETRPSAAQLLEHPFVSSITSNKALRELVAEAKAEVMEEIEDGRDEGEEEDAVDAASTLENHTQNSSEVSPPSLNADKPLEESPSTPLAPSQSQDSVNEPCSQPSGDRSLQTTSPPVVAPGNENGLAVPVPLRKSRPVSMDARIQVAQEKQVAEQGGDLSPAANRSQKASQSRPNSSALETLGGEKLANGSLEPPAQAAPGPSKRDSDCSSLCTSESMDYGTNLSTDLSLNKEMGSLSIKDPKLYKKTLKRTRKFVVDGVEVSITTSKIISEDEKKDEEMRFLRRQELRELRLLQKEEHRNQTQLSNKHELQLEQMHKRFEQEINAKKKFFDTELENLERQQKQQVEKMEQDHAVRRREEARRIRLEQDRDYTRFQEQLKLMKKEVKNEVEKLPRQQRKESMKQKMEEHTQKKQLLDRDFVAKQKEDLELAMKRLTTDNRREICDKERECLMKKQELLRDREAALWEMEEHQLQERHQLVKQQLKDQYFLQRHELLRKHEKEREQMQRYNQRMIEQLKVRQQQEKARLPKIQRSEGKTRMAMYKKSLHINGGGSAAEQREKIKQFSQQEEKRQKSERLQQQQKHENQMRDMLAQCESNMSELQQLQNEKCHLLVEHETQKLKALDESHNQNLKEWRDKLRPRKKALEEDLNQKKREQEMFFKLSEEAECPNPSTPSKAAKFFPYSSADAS
Sequence of Serine/threonine-protein kinase PAK 4 (Homo sapiens) (O96013 whole entry, looked up): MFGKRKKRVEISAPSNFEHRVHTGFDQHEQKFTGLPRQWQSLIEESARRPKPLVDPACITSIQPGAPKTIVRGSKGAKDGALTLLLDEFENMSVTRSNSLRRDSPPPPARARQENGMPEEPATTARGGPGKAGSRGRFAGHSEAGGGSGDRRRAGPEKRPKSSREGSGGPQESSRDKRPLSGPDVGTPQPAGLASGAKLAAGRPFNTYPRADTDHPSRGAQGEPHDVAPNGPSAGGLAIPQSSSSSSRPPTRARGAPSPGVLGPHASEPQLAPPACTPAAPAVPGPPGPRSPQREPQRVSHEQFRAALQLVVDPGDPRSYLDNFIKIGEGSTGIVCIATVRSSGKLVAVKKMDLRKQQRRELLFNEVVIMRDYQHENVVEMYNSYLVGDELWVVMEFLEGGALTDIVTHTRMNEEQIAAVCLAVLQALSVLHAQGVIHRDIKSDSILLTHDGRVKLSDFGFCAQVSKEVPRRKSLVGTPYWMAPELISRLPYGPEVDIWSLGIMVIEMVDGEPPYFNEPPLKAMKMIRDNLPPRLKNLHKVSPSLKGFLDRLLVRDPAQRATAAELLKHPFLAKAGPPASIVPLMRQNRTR
Sequence of Fibroblast growth factor receptor 3 (Homo sapiens) (P22607 23-806 limits assumed): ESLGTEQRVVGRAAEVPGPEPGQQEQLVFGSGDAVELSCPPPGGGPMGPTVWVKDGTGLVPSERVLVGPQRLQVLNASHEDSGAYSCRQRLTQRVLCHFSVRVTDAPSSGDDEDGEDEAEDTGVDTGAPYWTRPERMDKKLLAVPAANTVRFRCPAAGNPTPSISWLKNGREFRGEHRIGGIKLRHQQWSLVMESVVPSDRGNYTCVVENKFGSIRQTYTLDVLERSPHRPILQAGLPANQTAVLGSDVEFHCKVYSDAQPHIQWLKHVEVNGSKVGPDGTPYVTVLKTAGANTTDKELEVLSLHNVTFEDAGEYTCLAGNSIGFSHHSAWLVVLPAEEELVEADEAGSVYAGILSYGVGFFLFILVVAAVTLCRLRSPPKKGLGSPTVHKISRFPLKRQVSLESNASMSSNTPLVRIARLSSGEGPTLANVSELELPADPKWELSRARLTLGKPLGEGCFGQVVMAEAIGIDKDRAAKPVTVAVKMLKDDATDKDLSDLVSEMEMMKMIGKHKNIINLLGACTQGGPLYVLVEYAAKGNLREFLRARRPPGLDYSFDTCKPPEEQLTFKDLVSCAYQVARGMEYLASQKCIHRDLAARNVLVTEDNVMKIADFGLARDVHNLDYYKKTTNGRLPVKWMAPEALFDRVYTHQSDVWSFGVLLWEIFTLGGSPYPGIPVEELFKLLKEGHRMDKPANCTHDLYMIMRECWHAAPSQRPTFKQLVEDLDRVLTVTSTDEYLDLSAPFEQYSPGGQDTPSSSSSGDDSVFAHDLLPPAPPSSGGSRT
Sequence of Cyclin-dependent kinase 16 (Homo sapiens) (Q00536 whole entry): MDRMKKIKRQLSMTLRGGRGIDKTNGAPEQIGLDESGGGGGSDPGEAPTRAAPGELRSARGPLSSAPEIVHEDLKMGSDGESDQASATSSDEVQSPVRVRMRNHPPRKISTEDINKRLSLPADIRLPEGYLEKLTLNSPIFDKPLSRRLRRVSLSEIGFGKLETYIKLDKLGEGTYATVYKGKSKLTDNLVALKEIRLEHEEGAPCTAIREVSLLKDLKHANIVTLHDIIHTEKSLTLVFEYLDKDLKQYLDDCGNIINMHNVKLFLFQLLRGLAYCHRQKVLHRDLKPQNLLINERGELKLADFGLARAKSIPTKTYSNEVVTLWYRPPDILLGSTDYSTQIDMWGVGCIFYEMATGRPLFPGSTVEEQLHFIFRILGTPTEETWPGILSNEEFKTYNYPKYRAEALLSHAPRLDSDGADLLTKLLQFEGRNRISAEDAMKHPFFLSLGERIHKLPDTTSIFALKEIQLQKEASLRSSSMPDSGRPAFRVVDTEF
Sequence of Protein-tyrosine kinase 6 (Homo sapiens) (Q13882 whole entry, looked up): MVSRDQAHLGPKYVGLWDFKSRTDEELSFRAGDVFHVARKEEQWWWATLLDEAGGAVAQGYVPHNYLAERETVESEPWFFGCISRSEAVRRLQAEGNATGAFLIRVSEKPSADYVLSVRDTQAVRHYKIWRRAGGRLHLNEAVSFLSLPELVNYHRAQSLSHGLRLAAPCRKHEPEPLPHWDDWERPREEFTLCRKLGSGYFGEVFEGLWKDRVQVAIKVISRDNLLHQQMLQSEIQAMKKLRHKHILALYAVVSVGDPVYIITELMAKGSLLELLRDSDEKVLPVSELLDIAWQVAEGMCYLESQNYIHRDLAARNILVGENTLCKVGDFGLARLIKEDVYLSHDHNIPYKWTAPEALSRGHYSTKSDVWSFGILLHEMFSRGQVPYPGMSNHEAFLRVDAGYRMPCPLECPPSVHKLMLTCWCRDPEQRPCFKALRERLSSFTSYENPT

With `COc1cc2nc(C)nc(N[C@H](C)c3cccc(-c4cn[nH]c4)c3)c2cc1OC`, the Activity in assay [1] is 91%; in assay [2], 100%; in assay [3] it was 56%; in assay [4], 86%; in assay [5], 100%; in assay [6], 97%. Moreover, the Activity in assay [7] came to 57%; in assay [8], 77%; in assay [9], 96%; in assay [10], 95%; in assay [11], 93%; in assay [12], 90%.
Consider `COc1cc2ncnc(N[C@H](C)c3cccc4ccccc34)c2cc1OC`, for which the Activity amounted to 100% in [1]; 98% in assay [2]; 44% in assay [3]; 100% in [4]; 100% in assay [5]; 97% in assay [6]. For the same molecule, the Activity worked out at 100% in assay [7]; 93% in assay [8]; 59% in assay [9]; 88% in assay [10]; 90% in assay [11]; 100% in assay [12].
